{
  "source": "patent US20230157963A1",
  "about": "“SOLID ORAL BEADS OF FUNCTIONAL INGREDIENTS AND METHODS OF MAKING THE SAME” (Nulixir Inc., priority 2021, published 2023)",
  "origin": "cited, not measured here",
  "data": [
    {"settings": "categorization at pH=7 unless stated otherwise; reference phases water and n-octanol", "values": [
      {"compound": "COc1cc2c(c(OC)c1OC)-c1c(cc3c(c1OC)OCO3)CC(C)C(C)C2", "note": "(single isomer, unassigned; (-)) [(−)-schisandrin B]", "log P": "~4"},
      {"compound": "N#C[C@@]1(O[C@@H]2O[C@H](CO)[C@@H](O)[C@H](O)[C@H]2O)C=C[C@@H](O)C1", "note": "[tetraphyllin B]", "log P": "~−2.5"},
      {"compound": "bacopaside B", "log P": "~2.8"},
      {"compound": "COc1ccc(C23C=CC(O)CC2N(C)CC3)cc1OC", "note": "(stereo not drawn) [mesembrenol]", "log P": "~2.4"},
      {"compound": "(R)-kawain", "log P": "~2.7"},
      {"compound": "COc1nc2c(c(=O)n1C)n(C)c(=O)n2C", "note": "[methylliberine]", "log P": "~−0.083"},
      {"compound": "COc1ccc([C@@]23CCC(=O)C[C@@H]2N(C)CC3)cc1OC", "note": "[mesembrine]", "log P": "~1.5"},
      {"compound": "herinacine A", "log P": "~2.5"},
      {"compound": "CC(C)=C[C@H]1C[C@](C)(O)[C@H]2[C@H]3CC[C@@H]4[C@@]5(C)CC[C@H](O[C@@H]6O[C@H](CO)[C@@H](O)[C@H](O[C@@H]7O[C@H](CO)[C@@H](O)[C@H](O)[C@H]7O)[C@H]6O[C@@H]6O[C@@H](CO)[C@H](O)[C@H]6O)C(C)(C)[C@@H]5CC[C@@]4(C)[C@@]34CO[C@@]2(C4)O1", "note": "[bacoside A3]", "log P": "~2.1"},
      {"compound": "COc1cc(/C=C/c2ccccc2)oc(=O)c1", "note": "[5,6-dehydrokawain]", "log P": "~2.9"},
      {"compound": "COc1cc2c(c(OC)c1OC)-c1c(cc(OC)c(OC)c1OC)C[C@H](C)[C@H](C)C2", "note": "[(−)-schisandrin A]", "log P": "~3.6"},
      {"compound": "COC1=CC(=O)O[C@@H](CCc2ccc3c(c2)OCO3)C1", "note": "[7,8-dihydromethysticin]", "log P": "~2.2"},
      {"compound": "CC1=C(CO)C(=O)O[C@@H]([C@@H](C)[C@H]2CC[C@H]3[C@@H]4C[C@H](Cl)[C@]5(O)[C@@H](O)C=CC(=O)[C@]5(C)[C@H]4CC[C@]23C)C1", "note": "[6a-chloro-5b-hydroxywithaferin A]", "log P": "~3.2"},
      {"compound": "CC(C)=CCC[C@](C)(O[C@@H]1O[C@H](CO[C@@H]2O[C@H](CO)[C@@H](O)[C@H](O)[C@H]2O)[C@@H](O)[C@H](O)[C@H]1O)[C@H]1CC[C@]2(C)[C@@H]1[C@H](O)C[C@@H]1[C@@]3(C)CC[C@H](O[C@@H]4O[C@H](CO)[C@@H](O)[C@H](O)[C@H]4O[C@@H]4O[C@H](CO)[C@@H](O)[C@H](O)[C@H]4O)C(C)(C)[C@@H]3CC[C@]12C", "note": "[ginsenoside rb1]", "log P": "~−1"},
      {"compound": "COc1cc2c(c(OC)c1OC)-c1c(cc(OC)c(OC)c1OC)C[C@](C)(O)[C@@H](C)C2", "note": "[schisandrol A]", "log P": "~3.4"},
      {"compound": "COc1cc([C@H]2Oc3cc(O)c4c(=O)c(O)c(-c5ccc(O)cc5)oc4c3O[C@@H]2CO)ccc1O", "note": "[rhodiolin]", "log P": "~2"},
      {"compound": "schisandroside C", "log P": "~1.6"},
      {"compound": "CC(C)=C[C@@H]1CO[C@]23C[C@]4(CO2)[C@H](CC[C@@H]2[C@@]5(C)CC[C@H](O[C@@H]6OC[C@H](O)[C@H](O[C@@H]7O[C@H](CO)[C@@H](O)[C@H](O)[C@H]7O)[C@H]6O[C@@H]6O[C@@H](CO)[C@H](O)[C@H]6O)C(C)(C)[C@@H]5CC[C@]24C)[C@H]3[C@@]1(C)O", "note": "[bacopasaponin C]", "log P": "~2"},
      {"compound": "CC(C)=C[C@H]1C[C@](C)(O)[C@@H]2[C@H]3CC[C@@H]4[C@@]5(C)CC[C@H](O[C@@H]6OC[C@H](O)[C@H](O[C@@H]7O[C@H](CO)[C@@H](O)[C@H](O)[C@H]7O)[C@H]6O[C@@H]6O[C@@H](CO)[C@H](O)[C@H]6O)C(C)(C)[C@@H]5CC[C@@]4(C)[C@@]34CO[C@@]2(C4)O1", "note": "[bacopaside X]", "log P": "~2.2"},
      {"compound": "CC(C)=CCC[C@](C)(O[C@@H]1O[C@H](CO)[C@@H](O)[C@H](O)[C@H]1O)[C@H]1CC[C@]2(C)[C@@H]1[C@H](O)C[C@@H]1[C@@]3(C)CC[C@H](O)C(C)(C)[C@@H]3[C@@H](O[C@@H]3O[C@H](CO)[C@@H](O)[C@H](O)[C@H]3O)C[C@]12C", "note": "[ginsenoside rg1]", "log P": "~0.8"},
      {"compound": "CC(=O)OC1C=CC(=O)N(C(=O)CCc2ccccc2)C1", "note": "(stereo not drawn) [pipermethystine]", "log P": "~1.8"},
      {"compound": "COc1cc(/C=C\\c2ccc(OC)c(O)c2)oc(=O)c1", "note": "[11-hydroxyyangonin]", "log P": "~2.2"},
      {"compound": "hericerin", "log P": "~6.4"},
      {"compound": "COC1=CC(=O)OC(/C=C/c2ccc(OC)cc2)C1", "note": "(stereo not drawn) [5,6-dihydroyangonin]", "log P": "~2.5"},
      {"compound": "COc1ccc(CCc2cc(OC)cc(=O)o2)cc1", "note": "[7,8-dihydroyangonin]", "log P": "~2.9"},
      {"compound": "COc1ccc([C@@]23C=CC(=O)C[C@@H]2N(C)CC3)cc1OC", "note": "[mesembrenone]", "log P": "~1.3"},
      {"compound": "OC[C@H]1O[C@@H](OCCc2ccc(O)cc2)[C@H](O)[C@@H](O)[C@@H]1O", "note": "[rhodosin, salidroside]", "log P": "~−1"},
      {"compound": "COc1cc2c(c(OC)c1OC)-c1c(cc(OC)c(OC)c1OC)C[C@](C)(O)[C@@H](C)C2", "note": "[(+)-schisandrin]", "log P": "~5"},
      {"compound": "tortuosomine", "log P": "~3"},
      {"compound": "COc1c2c(cc3c1-c1c(cc4c(c1OC)OCO4)C[C@H](C)[C@H](C)C3)OCO2", "note": "[(−)-schisandrin C]", "log P": "~3.5"}
    ]}
  ]
}
